Values after ≈ are worked out from the molar mass of the structure shown. Bridge positions count the residues as written; N and C are the ends. Square brackets hold non-standard residues; d marks the D form. Peptide text beside a SMILES is read from it. R5 = C=CCCC[C@@](C)(N)C(=O)O; S5 = C=CCCC[C@](C)(N)C(=O)O
Legend:
Assay type in all cases: functional
Staphylococcus aureus = assay: Antibacterial activity against Staphylococcus aureus ATCC 25923 assessed as inhibition of bacterial growth measured after 24 hrs by broth microdilution method
Pseudomonas aeruginosa = assay: Antibacterial activity against Pseudomonas aeruginosa PAO1 assessed as inhibition of bacterial growth measured after 24 hrs by broth microdilution method
Klebsiella pneumoniae = assay: Antibacterial activity against Klebsiella pneumoniae ATCC 13883 assessed as inhibition of bacterial growth measured after 24 hrs by broth microdilution method

Structure (SMILES) | MIC (Staphylococcus aureus) [µM] | MIC (Pseudomonas aeruginosa) [µM] | MIC (Klebsiella pneumoniae) [µM]
CC[C@H](C)[C@H](NC(=O)CNC(=O)[C@H](CC(=O)O)NC(=O)[C@H](CCCNC(=N)N)NC(=O)[C@@H](NC(=O)[C@H](CC(N)=O)NC(=O)[C@H](CCC(N)=O)NC(=O)CNC(=O)[C@@H](NC(=O)[C@H](CCCCN)NC(=O)[C@H](CCC(=O)O)NC(=O)[C@@H](NC(=O)[C@H](CCCCN)NC(=O)[C@H](CCCCN)NC(=O)[C@H](Cc1ccccc1)NC(=O)[C@H](CC(C)C)NC(=O)[C@H](CCCCN)NC(=O)[C@H](Cc1c[nH]c2ccccc12)NC(=O)[C@H](CCCCN)NC(C)=O)[C@@H](C)CC)C(C)C)[C@@H](C)CC)C(=O)N[C@H](C(=O)N[C@@H](CCCCN)C(=O)N[C@@H](C)C(=O)NCC(=O)N1CCC[C@H]1C(=O)N[C@@H](C)C(=O)N[C@H](C(=O)N[C@@]1(C)CCC/C=C\CCC[C@@](C)(C(=O)N[C@@H](C)C(=O)N[C@H](C(=O)N[C@@H](CCC(N)=O)C(=O)N[C@H](C(=O)N[C@@H](C)C(=O)N[C@@H](CCCCN)C(N)=O)[C@@H](C)CC)[C@@H](C)O)NC(=O)CNC(=O)[C@H](C(C)C)NC(=O)[C@H](C(C)C)NC1=O)C(C)C)[C@@H](C)CC (Ac-KWKLFKKIEKVGQNIRDGIIKAGPAV[S5]VVG[S5]ATQIAK-NH2; staple (Z) 27-31) | 3.13 (≈ 12.8 µg/mL) | 6.25 (≈ 25.6 µg/mL) | 6.25 (≈ 25.6 µg/mL)
CC[C@H](C)[C@H](NC(=O)[C@H](CCC(N)=O)NC(=O)[C@@H](NC(=O)[C@H](C)NC(=O)[C@H](CCC(N)=O)NC(=O)CNC(=O)[C@@H](NC(=O)[C@@H](NC(=O)[C@H](C)NC(=O)[C@@H](NC(=O)[C@H](C)NC(=O)[C@@H]1CCCN1C(=O)CNC(=O)[C@]1(C)CCC/C=C\CCC[C@](C)(NC(=O)[C@H](CC(=O)O)NC(=O)[C@H](CCCNC(=N)N)NC(=O)[C@@H](NC(=O)[C@H](CC(N)=O)NC(=O)[C@H](CCC(N)=O)NC(=O)CNC(=O)[C@@H](NC(=O)[C@H](CCCCN)NC(=O)[C@H](CCC(=O)O)NC(=O)[C@@H](NC(=O)[C@H](CCCCN)NC(=O)[C@H](CCCCN)NC(=O)[C@H](Cc2ccccc2)NC(=O)[C@H](CC(C)C)NC(=O)[C@H](CCCCN)NC(=O)[C@H](Cc2c[nH]c3ccccc23)NC(=O)[C@H](CCCCN)NC(C)=O)[C@@H](C)CC)C(C)C)[C@@H](C)CC)C(=O)N[C@@H]([C@@H](C)CC)C(=O)N[C@@H]([C@@H](C)CC)C(=O)N[C@@H](CCCCN)C(=O)N1)C(C)C)C(C)C)C(C)C)[C@@H](C)O)C(=O)N[C@@H](C)C(=O)N[C@@H](CCCCN)C(N)=O (Ac-KWKLFKKIEKVGQNIRD[S5]IIK[S5]GPAVAVVGQATQIAK-NH2; staple (Z) 18-22) | 3.13 (≈ 13 µg/mL) | 3.13 (≈ 13 µg/mL) | 3.13 (≈ 13 µg/mL)
CC[C@H](C)[C@@H]1NC(=O)CNC(=O)[C@](C)(NC(=O)[C@H](CCCNC(=N)N)NC(=O)[C@@H](NC(=O)[C@H](CC(N)=O)NC(=O)[C@H](CCC(N)=O)NC(=O)CNC(=O)[C@@H](NC(=O)[C@H](CCCCN)NC(=O)[C@H](CCC(=O)O)NC(=O)[C@@H](NC(=O)[C@H](CCCCN)NC(=O)[C@H](CCCCN)NC(=O)[C@H](Cc2ccccc2)NC(=O)[C@H](CC(C)C)NC(=O)[C@H](CCCCN)NC(=O)[C@H](Cc2c[nH]c3ccccc23)NC(=O)[C@H](CCCCN)NC(C)=O)[C@@H](C)CC)C(C)C)[C@@H](C)CC)CCC/C=C\CCC[C@](C)(C(=O)N[C@@H](C)C(=O)NCC(=O)N2CCC[C@H]2C(=O)N[C@@H](C)C(=O)N[C@H](C(=O)N[C@@H](C)C(=O)N[C@H](C(=O)N[C@H](C(=O)NCC(=O)N[C@@H](CCC(N)=O)C(=O)N[C@@H](C)C(=O)N[C@H](C(=O)N[C@@H](CCC(N)=O)C(=O)N[C@H](C(=O)N[C@@H](C)C(=O)N[C@@H](CCCCN)C(N)=O)[C@@H](C)CC)[C@@H](C)O)C(C)C)C(C)C)C(C)C)NC(=O)[C@H]([C@@H](C)CC)NC1=O (Ac-KWKLFKKIEKVGQNIR[R5]GII[R5]AGPAVAVVGQATQIAK-NH2; staple (Z) 17-21) | 6.25 (≈ 25.3 µg/mL) | > 100 | 25 (≈ 101 µg/mL)
CC[C@H](C)[C@@H]1NC(=O)CNC(=O)[C@H](CC(=O)O)NC(=O)[C@@](C)(NC(=O)[C@@H](NC(=O)[C@H](CC(N)=O)NC(=O)[C@H](CCC(N)=O)NC(=O)CNC(=O)[C@@H](NC(=O)[C@H](CCCCN)NC(=O)[C@H](CCC(=O)O)NC(=O)[C@@H](NC(=O)[C@H](CCCCN)NC(=O)[C@H](CCCCN)NC(=O)[C@H](Cc2ccccc2)NC(=O)[C@H](CC(C)C)NC(=O)[C@H](CCCCN)NC(=O)[C@H](Cc2c[nH]c3ccccc23)NC(=O)[C@H](CCCCN)NC(C)=O)[C@@H](C)CC)C(C)C)[C@@H](C)CC)CCC/C=C\CCC[C@@](C)(C(=O)N[C@@H](CCCCN)C(=O)N[C@@H](C)C(=O)NCC(=O)N2CCC[C@H]2C(=O)N[C@@H](C)C(=O)N[C@H](C(=O)N[C@@H](C)C(=O)N[C@H](C(=O)N[C@H](C(=O)NCC(=O)N[C@@H](CCC(N)=O)C(=O)N[C@@H](C)C(=O)N[C@H](C(=O)N[C@@H](CCC(N)=O)C(=O)N[C@H](C(=O)N[C@@H](C)C(=O)N[C@@H](CCCCN)C(N)=O)[C@@H](C)CC)[C@@H](C)O)C(C)C)C(C)C)C(C)C)NC1=O (Ac-KWKLFKKIEKVGQNI[S5]DGI[S5]KAGPAVAVVGQATQIAK-NH2; staple (Z) 16-20) | 12.5 (≈ 50.3 µg/mL) | 100 (≈ 403 µg/mL) | 6.25 (≈ 25.2 µg/mL)
CC[C@H](C)[C@H](NC(=O)[C@H](CCC(N)=O)NC(=O)[C@@H](NC(=O)[C@H](C)NC(=O)[C@H](CCC(N)=O)NC(=O)CNC(=O)[C@@H](NC(=O)[C@@H](NC(=O)[C@H](C)NC(=O)[C@@H](NC(=O)[C@H](C)NC(=O)[C@@H]1CCCN1C(=O)CNC(=O)[C@H](C)NC(=O)[C@H](CCCCN)NC(=O)[C@@H](NC(=O)[C@]1(C)CCC/C=C\CCC[C@](C)(NC(=O)[C@H](CC(N)=O)NC(=O)[C@H](CCC(N)=O)NC(=O)CNC(=O)[C@@H](NC(=O)[C@H](CCCCN)NC(=O)[C@H](CCC(=O)O)NC(=O)[C@@H](NC(=O)[C@H](CCCCN)NC(=O)[C@H](CCCCN)NC(=O)[C@H](Cc2ccccc2)NC(=O)[C@H](CC(C)C)NC(=O)[C@H](CCCCN)NC(=O)[C@H](Cc2c[nH]c3ccccc23)NC(=O)[C@H](CCCCN)NC(C)=O)[C@@H](C)CC)C(C)C)C(=O)N[C@@H](CCCNC(=N)N)C(=O)N[C@@H](CC(=O)O)C(=O)NCC(=O)N1)[C@@H](C)CC)C(C)C)C(C)C)C(C)C)[C@@H](C)O)C(=O)N[C@@H](C)C(=O)N[C@@H](CCCCN)C(N)=O (Ac-KWKLFKKIEKVGQN[S5]RDG[S5]IKAGPAVAVVGQATQIAK-NH2; staple (Z) 15-19) | > 100 | 100 (≈ 407 µg/mL) | 12.5 (≈ 50.9 µg/mL)
CC[C@H](C)[C@H](NC(=O)[C@H](CCC(N)=O)NC(=O)[C@@H](NC(=O)[C@H](C)NC(=O)[C@H](CCC(N)=O)NC(=O)CNC(=O)[C@@H](NC(=O)[C@@H](NC(=O)[C@H](C)NC(=O)[C@@H](NC(=O)[C@H](C)NC(=O)[C@@H]1CCCN1C(=O)CNC(=O)[C@H](C)NC(=O)[C@H](CCCCN)NC(=O)[C@@H](NC(=O)[C@@H](NC(=O)[C@]1(C)CCC/C=C\CCC[C@](C)(NC(=O)[C@H](CCC(N)=O)NC(=O)CNC(=O)[C@@H](NC(=O)[C@H](CCCCN)NC(=O)[C@H](CCC(=O)O)NC(=O)[C@@H](NC(=O)[C@H](CCCCN)NC(=O)[C@H](CCCCN)NC(=O)[C@H](Cc2ccccc2)NC(=O)[C@H](CC(C)C)NC(=O)[C@H](CCCCN)NC(=O)[C@H](Cc2c[nH]c3ccccc23)NC(=O)[C@H](CCCCN)NC(C)=O)[C@@H](C)CC)C(C)C)C(=O)N[C@@H]([C@@H](C)CC)C(=O)N[C@@H](CCCNC(=N)N)C(=O)N[C@@H](CC(=O)O)C(=O)N1)[C@@H](C)CC)[C@@H](C)CC)C(C)C)C(C)C)C(C)C)[C@@H](C)O)C(=O)N[C@@H](C)C(=O)N[C@@H](CCCCN)C(N)=O (Ac-KWKLFKKIEKVGQ[S5]IRD[S5]IIKAGPAVAVVGQATQIAK-NH2; staple (Z) 14-18) | > 100 | > 100 | > 100
CC[C@H](C)[C@H](NC(=O)CNC(=O)[C@]1(C)CCC/C=C\CCC[C@](C)(NC(=O)CNC(=O)[C@@H](NC(=O)[C@H](CCCCN)NC(=O)[C@H](CCC(=O)O)NC(=O)[C@@H](NC(=O)[C@H](CCCCN)NC(=O)[C@H](CCCCN)NC(=O)[C@H](Cc2ccccc2)NC(=O)[C@H](CC(C)C)NC(=O)[C@H](CCCCN)NC(=O)[C@H](Cc2c[nH]c3ccccc23)NC(=O)[C@H](CCCCN)NC(C)=O)[C@@H](C)CC)C(C)C)C(=O)N[C@@H](CC(N)=O)C(=O)N[C@@H]([C@@H](C)CC)C(=O)N[C@@H](CCCNC(=N)N)C(=O)N1)C(=O)N[C@H](C(=O)N[C@@H](CCCCN)C(=O)N[C@@H](C)C(=O)NCC(=O)N1CCC[C@H]1C(=O)N[C@@H](C)C(=O)N[C@H](C(=O)N[C@@H](C)C(=O)N[C@H](C(=O)N[C@H](C(=O)NCC(=O)N[C@@H](CCC(N)=O)C(=O)N[C@@H](C)C(=O)N[C@H](C(=O)N[C@@H](CCC(N)=O)C(=O)N[C@H](C(=O)N[C@@H](C)C(=O)N[C@@H](CCCCN)C(N)=O)[C@@H](C)CC)[C@@H](C)O)C(C)C)C(C)C)C(C)C)[C@@H](C)CC (Ac-KWKLFKKIEKVG[S5]NIR[S5]GIIKAGPAVAVVGQATQIAK-NH2; staple (Z) 13-17) | 50 (≈ 203 µg/mL) | 100 (≈ 405 µg/mL) | 6.25 (≈ 25.3 µg/mL)
CC[C@H](C)[C@H](NC(=O)CNC(=O)[C@H](CC(=O)O)NC(=O)[C@]1(C)CCC/C=C\CCC[C@](C)(NC(=O)[C@@H](NC(=O)[C@H](CCCCN)NC(=O)[C@H](CCC(=O)O)NC(=O)[C@@H](NC(=O)[C@H](CCCCN)NC(=O)[C@H](CCCCN)NC(=O)[C@H](Cc2ccccc2)NC(=O)[C@H](CC(C)C)NC(=O)[C@H](CCCCN)NC(=O)[C@H](Cc2c[nH]c3ccccc23)NC(=O)[C@H](CCCCN)NC(C)=O)[C@@H](C)CC)C(C)C)C(=O)N[C@@H](CCC(N)=O)C(=O)N[C@@H](CC(N)=O)C(=O)N[C@@H]([C@@H](C)CC)C(=O)N1)C(=O)N[C@H](C(=O)N[C@@H](CCCCN)C(=O)N[C@@H](C)C(=O)NCC(=O)N1CCC[C@H]1C(=O)N[C@@H](C)C(=O)N[C@H](C(=O)N[C@@H](C)C(=O)N[C@H](C(=O)N[C@H](C(=O)NCC(=O)N[C@@H](CCC(N)=O)C(=O)N[C@@H](C)C(=O)N[C@H](C(=O)N[C@@H](CCC(N)=O)C(=O)N[C@H](C(=O)N[C@@H](C)C(=O)N[C@@H](CCCCN)C(N)=O)[C@@H](C)CC)[C@@H](C)O)C(C)C)C(C)C)C(C)C)[C@@H](C)CC (Ac-KWKLFKKIEKV[S5]QNI[S5]DGIIKAGPAVAVVGQATQIAK-NH2; staple (Z) 12-16) | 25 (≈ 102 µg/mL) | > 100 | > 100

— ChEMBL document CHEMBL6115030, “Systematic All-Hydrocarbon Stapling Analysis for Cecropin A Generates a Potent and Stable Antimicrobial Peptide” (J Med Chem, 2025)
